Reference: patent US9890166B2, “Imidazopyrrolidine derivatives and their use in the treatment of disease” (NOVARTIS AG, priority 2013, dated 2018)
pIC50: −log10 of the molar value.

Legend:
MV-4-11 cells = assay: Cell growth inhibition assay (CellTiter-Glo), MV-4-11; details: for GI50: Homo sapiens, MV4-11, read-out: MV-4-11 GI50; for MV-4-11 TGI: MV-4-11 cells, total growth inhibition, CellTiter-Glo;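 on all read-outs here: cellular ATP luminescence after 4 days, 3-fold dilution series from 10 µM top dose, vehicle (0.1% DMSO) set to 100%, cell-free medium set to −100%, day 0 corrected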
BRD2 (His-Brd2(60-472)) = BRD2 (His-Brd2(60-472)) (Homo sapiens (Human), UniProt P25440); assay: TR-FRET in-vitro binding assay for BRD2; details: single determination or n ≧ 2 independent determinations, read-out: Biochemical IC50 BRD2
BRD2 (His-Brd2(60-472)), sequence (P25440 60-472): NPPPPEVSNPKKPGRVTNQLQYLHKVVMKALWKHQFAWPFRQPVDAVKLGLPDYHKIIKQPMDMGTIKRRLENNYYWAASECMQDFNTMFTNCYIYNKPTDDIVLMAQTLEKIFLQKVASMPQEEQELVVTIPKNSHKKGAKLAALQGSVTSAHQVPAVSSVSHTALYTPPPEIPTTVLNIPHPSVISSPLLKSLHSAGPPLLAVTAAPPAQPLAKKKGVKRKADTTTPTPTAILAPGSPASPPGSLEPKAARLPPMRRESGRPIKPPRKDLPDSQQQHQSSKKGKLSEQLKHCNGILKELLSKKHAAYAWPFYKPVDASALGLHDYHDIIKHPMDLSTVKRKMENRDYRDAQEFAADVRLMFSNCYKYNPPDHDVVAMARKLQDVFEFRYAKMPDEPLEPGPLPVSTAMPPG
Protocol: TR-FRET In-Vitro Binding Assays for BRD2, BRD3, and BRD4:
All assays were performed in 384 well microtiter plates. Each assay plate contained 8-point serial dilutions for 40 test compounds, plus 16 high- and 16 low controls. Liquid handling and incubation steps were done on an Innovadyne Nanodrop Express equipped with a robotic arm (Thermo CatX, Perkin Elmer/Caliper Twister II) and an incubator (Liconic STX40, Thermo Cytomat 2C450). The assay plates were prepared by addition of 50 nl per well of compound solution in 90% DMSO HummingBird nanodispenser (Zinsser Analytic). […] Reactions were incubated at 30° C. for 35 minutes. […] After 35 minutes incubation at 30° C., plates were measured in a Perkin Elmer EnVision multilabel reader.
Preparation of Compound Dilutions
Test compounds were dissolved in DMSO (10 mM) and transferred into 1.4 mL flat bottom or V-shaped Matrix tubes carrying a unique 2D matrix. The stock solutions were stored at […] if not used immediately. For the test procedure the vials were defrosted and identified by a scanner whereby a working sheet was generated that guided the subsequent working steps.
Compound dilutions were made in 96 well plates. This format enabled the assay of maximally 40 individual test compounds at 8 concentrations (single points) including 4 reference compounds, if desired (known BET inhibitors from the prior art, for this and other assays of the type disclosed herein). The dilution protocol included the production of “pre-dilution plates”, “master plates” and “assay plates”.
Pre-Dilution Plates: 96 polypropylene well plates were used as pre-dilution plates. A total of 4 pre-dilution plates were prepared including 10 test compounds each on the plate positions A1-A10, one standard compound at A11 and one DMSO control at A12. All dilution steps were done on a HamiltonSTAR robot.
These plates were used directly for the assay which was performed in a total volume of 13.55 μL.

BRD4 (His-Brd4(44-477)) = BRD4 (His-Brd4(44-477)) (Homo sapiens (Human), UniProt O60885); assay: TR-FRET in-vitro binding assay for BRD4; details: single determination or n ≧ 2 independent determinations, read-out: Biochemical IC50 BRD4
In short: (§1)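 TR-FRET binding with His-tagged bromodomain constructs, 8-point compound dilutions from 10 mM DMSO stocks. Reactions incubated 35 min at 30° C in 13.55 μL, read on an EnVision multilabel reader.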

[1] = biological target: CREBBP bromodomain (His-CREBBP(1081-1197)) (Homo sapiens (Human), UniProt Q92793); assay: AlphaScreen in-vitro binding assay for CREBBP; details: single determination or n ≧ 2 independent determinations, read-out: Biochemical IC50 CREBBP
CREBBP bromodomain (His-CREBBP(1081-1197)), sequence (Q92793 1081-1197): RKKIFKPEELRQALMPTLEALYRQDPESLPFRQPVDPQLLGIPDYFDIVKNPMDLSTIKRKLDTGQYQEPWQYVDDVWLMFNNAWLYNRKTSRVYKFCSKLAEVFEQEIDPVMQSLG
In short: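 Reactions at 30 °C for 35 min, then Ni-chelate acceptor and streptavidin donor beads in HEPES pH 7.5, NaCl, Tween20, BSA, 60 min at room temperature. Eight-point compound series; IC50 by non-linear regression of percent inhibition.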

BRD3 (His-Brd3(20-477)) = BRD3 (His-Brd3(20-477)) (Homo sapiens (Human), UniProt Q15059); assay: TR-FRET in-vitro binding assay for BRD3; details: single determination or n ≧ 2 independent determinations, read-out: Biochemical IC50 BRD3
BRD3 (His-Brd3(20-477)), sequence (Q15059 20-477): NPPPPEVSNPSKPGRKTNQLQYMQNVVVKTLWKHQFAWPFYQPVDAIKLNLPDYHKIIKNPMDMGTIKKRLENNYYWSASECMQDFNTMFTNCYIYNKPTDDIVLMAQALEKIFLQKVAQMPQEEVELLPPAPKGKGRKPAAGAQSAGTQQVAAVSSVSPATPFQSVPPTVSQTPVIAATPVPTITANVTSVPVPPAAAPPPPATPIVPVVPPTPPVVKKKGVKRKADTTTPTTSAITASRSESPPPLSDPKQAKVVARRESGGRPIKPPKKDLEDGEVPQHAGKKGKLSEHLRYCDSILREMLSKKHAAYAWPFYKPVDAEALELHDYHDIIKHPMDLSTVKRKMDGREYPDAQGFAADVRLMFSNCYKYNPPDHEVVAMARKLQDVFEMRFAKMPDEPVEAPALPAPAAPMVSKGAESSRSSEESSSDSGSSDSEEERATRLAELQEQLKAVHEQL
In short: as §1

K-562 cells = assay: Cell growth inhibition assay (CellTiter-Glo), K-562; details: for GI50: Homo sapiens, K562, read-out: K-562 GI50; for K-562 TGI: K-562 cells, total growth inhibition, CellTiter-Glo;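 on all read-outs here: cellular ATP measured by luminescence after 4 days of exposure, 3-fold dilution series from 10 µM, DMSO vehicle-treated cells define 100%, cell-free medium wells −100%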
THP-1 cells = assay: Cell growth inhibition assay (CellTiter-Glo), THP-1; details: for GI50: Homo sapiens, THP-1, read-out: THP-1 GI50; for THP-1 TGI: THP-1 cells, total growth inhibition, CellTiter-Glo;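 on all read-outs here: viability read as cellular ATP luminescence after 4 days, 3-fold dilution series from 10 µM, DMSO vehicle-treated cells taken as 100%, cell-free medium wells as −100%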

Row | Structure (SMILES) | GI50 (MV-4-11 cells) [nM] | MV-4-11 TGI (MV-4-11 cells) [nM] | pIC50 (BRD2 (His-Brd2(60-472))) | pIC50 (BRD4 (His-Brd4(44-477))) | pIC50 [1] | pIC50 (BRD3 (His-Brd3(20-477))) | GI50 (K-562 cells) [nM] | K-562 TGI (K-562 cells) [nM] | GI50 (THP-1 cells) [nM] | THP-1 TGI (THP-1 cells) [nM]
1 | Cc1cc(N2C(=O)c3nc(C4CCOCC4)n(C(C)C)c3[C@H]2c2ccc(Cl)cc2)nn2c(C)nnc12 [Example 102, (R)-6-(4-chlorophenyl)-5-(3,8-dimethyl-[1,2,4]triazolo[4,3-b]pyridazin-6-yl)-1-isopropyl-2-(tetrahydro-2H-pyran-4-yl)-5,6-dihydropyrrolo[3,4-d]imidazol-4(1H)-one] | 1.38 | 4.435 | 7.70 | 7.82 | 4.76 | 7.77 | 13.4 | >10000 | 2.95 | 10.51
2 | COc1cc(C(F)(F)F)ccc1-c1nc2c(n1C(C)C)C(c1ccc(Cl)cc1)N(c1cc(C)c3nnc(C(F)F)n3c1)C2=O (centres unmarked) [Example 144, 6-(4-chlorophenyl)-5-(3-(difluoromethyl)-8-methyl-[1,2,4]triazolo[4,3-a]pyridin-6-yl)-1-isopropyl-2-(2-methoxy-4-(trifluoromethyl)phenyl)-5,6-dihydropyrrolo[3,4-d]imidazol-4(1H)-one] | 30.8 | 46.9 | 7.59 | 7.64 | < 4.43 | 7.66 | 116 | >10000 | 46.2 | 92.95
3 | Cc1cc(N2C(=O)c3nc(-c4nccs4)n(C(C)C)c3[C@H]2c2ccc(Cl)cc2)cn(C)c1=O [Example 24, (R)-6-(4-chlorophenyl)-5-(1,5-dimethyl-6-oxo-1,6-dihydropyridin-3-yl)-1-isopropyl-2-(thiazol-2-yl)-5,6-dihydropyrrolo[3,4-d]imidazol-4(1H)-one] | – | – | 7.52 | 7.37 | 6.34 | 7.38 | – | – | – | –
4 | Cc1cc(N2C(=O)c3nc(-c4ccc[nH]4)n(C(C)C)c3C2c2ccc(Cl)cc2)cn(C)c1=O (centres unmarked) [Example 30, 6-(4-chlorophenyl)-5-(1,5-dimethyl-6-oxo-1,6-dihydropyridin-3-yl)-1-isopropyl-2-(1H-pyrrol-2-yl)-5,6-dihydropyrrolo[3,4-d]imidazol-4(1H)-one] | – | – | 7.04 | 6.92 | 6.00 | 7.00 | – | – | – | –
5 | CCn1c(C)nc2c1C(=O)N(c1cc(C)c3nnn(C)c3c1)[C@@H]2c1ccc(Cl)cc1 [Example 122, (R)-6-(4-chlorophenyl)-5-(3,7-dimethyl-3H-benzo[d][1,2,3]triazol-5-yl)-3-ethyl-2-methyl-5,6-dihydropyrrolo[3,4-d]imidazol-4(3H)-one] | – | – | 7.67 | 7.72 | 5.58 | 7.59 | – | – | – | –
6 | CC(C)n1c(-c2ccn(C)n2)nc2c1C(c1ccc(Cl)cc1)N(c1ccc(=O)n(C)c1)C2=O (centres unmarked) [Example 22, 6-(4-chlorophenyl)-1-isopropyl-2-(1-methyl-1H-pyrazol-3-yl)-5-(1-methyl-6-oxo-1,6-dihydropyridin-3-yl)-5,6-dihydropyrrolo[3,4-d]imidazol-4(1H)-one] | – | – | 6.22 | 6.31 | < 4.43 | 6.22 | – | – | – | –
7 | COc1ncccc1-c1nc2c(n1C(C)C)C(=O)N(c1cc(C)c(=O)n(C)c1)C2c1ccc(Cl)cc1 (centres unmarked) [Example 44, 6-(4-chlorophenyl)-5-(1,5-dimethyl-6-oxo-1,6-dihydropyridin-3-yl)-3-isopropyl-2-(2-methoxypyridin-3-yl)-5,6-dihydropyrrolo[3,4-d]imidazol-4(3H)-one] | – | – | 7.48 | 7.41 | 6.00 | 7.41 | – | – | – | –
8 | COc1ncccc1-c1nc2c([nH]1)C(c1ccc(Cl)cc1)N(c1cc(C)c3nnc(C)n3c1)C2=O (centres unmarked) [Example 123, 6-(4-chlorophenyl)-5-(3,8-dimethyl-[1,2,4]triazolo[4,3-a]pyridin-6-yl)-2-(2-methoxypyridin-3-yl)-5,6-dihydropyrrolo[3,4-d]imidazol-4(1H)-one] | – | – | 7.01 | 7.19 | 5.26 | 7.06 | – | – | – | –
9 | CC(C)n1c(-c2ccccn2)nc2c1C(c1ccc(Cl)cc1)N(c1ccc(=O)n(C)c1)C2=O (centres unmarked) [Example 20, 6-(4-chlorophenyl)-1-isopropyl-5-(1-methyl-6-oxo-1,6-dihydropyridin-3-yl)-2-(Pyridin-2-yl)-5,6-dihydropyrrolo[3,4-d]imidazol-4(1H)-one] | – | – | 6.15 | 6.20 | 4.61 | 6.21 | – | – | – | –
10 | CCn1c(C)nc2c1[C@@H](c1ccc(Cl)cc1)N(c1cc(C)c3nnn(C)c3c1)C2=O [Example 120, (R)-6-(4-chlorophenyl)-5-(3,7-dimethyl-3H-benzo[d][1,2,3]triazol-5-yl)-1-ethyl-2-methyl-5,6-dihydropyrrolo[3,4-d]imidazol-4(1H)-one] | – | – | 7.45 | 7.69 | 5.29 | 7.53 | – | – | – | –
11 | Cc1cc(N2C(=O)c3nc(C4CC4)n(C(C)(C)C)c3C2c2ccc(Cl)cc2)cn(C)c1=O (centres unmarked) [Example 33, 1-(tert-butyl)-6-(4-chlorophenyl)-2-cyclopropyl-5-(1,5-dimethyl-6-oxo-1,6-dihydropyridin-3-yl)-5,6-dihydropyrrolo[3,4-d]imidazol-4(1H)-one] | – | – | 7.19 | 7.00 | 6.29 | 7.18 | – | – | – | –
12 | CC(C)n1c(-c2ccnn2C)nc2c1C(c1ccc(Cl)cc1)N(c1ccc(=O)n(C)c1)C2=O (centres unmarked) [Example 21, 6-(4-chlorophenyl)-1-isopropyl-2-(1-methyl-1H-pyrazol-5-yl)-5-(1-methyl-6-oxo-1,6-dihydropyridin-3-yl)-5,6-dihydropyrrolo[3,4-d]imidazol-4(1H)-one] | – | – | 5.96 | 6.11 | 4.46 | 6.08 | – | – | – | –
13 | Cc1ncc(-c2nc3c(n2C(C)C)C(c2ccc(Cl)cc2)N(c2cc(C)c(=O)n(C)c2)C3=O)s1 (centres unmarked) [Example 29, 6-(4-chlorophenyl)-5-(1,5-dimethyl-6-oxo-1,6-dihydropyridin-3-yl)-1-isopropyl-2-(2-methylthiazol-5-yl)-5,6-dihydropyrrolo[3,4-d]imidazol-4(1H)-one] | – | – | 7.09 | 6.96 | 6.10 | 7.00 | – | – | – | –
14 | Cc1cc(N2C(=O)c3nc(-c4nccs4)n(C(C)C)c3C2c2ccc(Cl)cc2)cn(C)c1=O (centres unmarked) [Example 23, 6-(4-chlorophenyl)-5-(1,5-dimethyl-6-oxo-1,6-dihydropyridin-3-yl)-1-isopropyl-2-(thiazol-2-yl)-5,6-dihydropyrrolo[3,4-d]imidazol-4(1H)-one] | 87.5 | 143 | 7.26 | 7.28 | – | 7.17 | 381 | >10000 | 158 | 311
15 | COc1ncccc1-c1nc2c([nH]1)[C@@H](c1ccc(Cl)cc1)N(c1cc(C)c3nnc(C)n3c1)C2=O [Example 142, (R)-6-(4-chlorophenyl)-5-(3,8-dimethyl-[1,2,4]triazolo[4,3-a]pyridin-6-yl)-2-(2-methoxypyridin-3-yl)-5,6-dihydropyrrolo[3,4-d]imidazol-4(1H)-one] | – | – | 7.02 | 7.40 | 5.76 | 7.44 | – | – | – | –
